Experimental data: patent US20100190747A1, “Fused ring compound and use thereof” (priority 2009, published 2010)

target: T1, delta-5-desaturase (Rattus norvegicus, UniProt Q920R3); assay: Inhibitory activity on delta-5-desaturase (rat liver microsomal fraction, 14C-eicosatrienoic acid, TLC); type: biochemical; conditions: test compound at 10 μM, room temperature, 120 minutes
T1 construct: the microsomal fraction of a rat river (10 μl), which had been diluted to 3 mg/ml; from tissue; host or cells: rat liver microsomal fraction
Method in brief: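 Rat liver microsomes (3 mg/ml before addition) incubated with test compound at 10 μM, NADH, ATP, CoA and 14C-eicosatrienoic acid in phosphate buffer pH 7.4 with BSA and glutathione, 120 min at room temperature. Lipids saponified, extracted, separated by reverse-phase TLC and imaged; % inhibition reported.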

T1 sequence (Q920R3 whole entry): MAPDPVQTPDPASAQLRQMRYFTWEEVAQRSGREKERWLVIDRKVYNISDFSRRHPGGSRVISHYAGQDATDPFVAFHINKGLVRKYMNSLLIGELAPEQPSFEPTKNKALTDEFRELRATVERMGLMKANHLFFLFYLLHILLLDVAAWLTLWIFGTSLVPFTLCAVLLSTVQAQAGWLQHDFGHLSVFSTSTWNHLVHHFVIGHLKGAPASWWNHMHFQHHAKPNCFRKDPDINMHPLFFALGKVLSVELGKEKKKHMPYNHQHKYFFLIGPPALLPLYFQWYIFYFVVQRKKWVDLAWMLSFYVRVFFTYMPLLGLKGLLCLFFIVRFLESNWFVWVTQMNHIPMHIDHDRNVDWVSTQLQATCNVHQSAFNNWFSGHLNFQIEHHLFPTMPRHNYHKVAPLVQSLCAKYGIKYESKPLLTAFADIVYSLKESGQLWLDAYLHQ

Row | Compound | inhibition at 10 µM
1 | O=c1c2[nH]ccc2nc(SCCCS(=O)(=O)CC2CC2)n1-c1ccc(OCC(F)(F)F)cc1 [Example 165, 2-({3-[(Cyclopropylmethyl)sulfonyl]propyl}sulfanyl)-3-[4-(2,2,2-trifluoroethoxy)phenyl]-3,5-dihydro-4H-pyrrolo[3,2-d]pyrimidin-4-one] | 99%
2 | O=c1c2[nH]ccc2nc(SCCC2(O)CCOCC2)n1-c1ccc(OCC2CC2)cc1 [Example 155, 3-[4-(Cyclopropylmethoxy)phenyl]-2-{[2-(4-hydroxytetrahydro-2H-pyran-4-yl)ethyl]sulfanyl}-3,5-dihydro-4H-pyrrolo[3,2-d]pyrimidin-4-one] | 99%
3 | CS(=O)(=O)CCCSc1nc2c(c(=O)n1-c1ccc(OCC3CC3)cc1)CC(=O)N2 [Example 301, 3-[4-(Cyclopropylmethoxy)phenyl]-2-{[3-(methylsulfonyl)propyl]sulfanyl}-5,7-dihydro-3H-pyrrolo[2,3-d]pyrimidine-4,6-dione] | 99%
4 | CC(C)(O)CCSc1nc2cc[nH]c2c(=O)n1-c1ccc(OCC(F)(F)F)cc1 [Example 131, 2-[(3-Hydroxy-3-methylbutyl)sulfanyl]-3-[4-(2,2,2-trifluoroethoxy)phenyl]-3,5-dihydro-4H-pyrrolo[3,2-d]pyrimidin-4-one] | 108%
5 | O=c1c2cc[nH]c2nc(OCC(F)(F)F)n1-c1ccc(OCC(F)(F)F)cc1 [Example 227, 2-(2,2,2-Trifluoroethoxy)-3-[4-(2,2,2-trifluoroethoxy)phenyl]-3,7-dihydro-4H-pyrrolo[2,3-d]pyrimidin-4-one] | 99%
6 | O=C1Cc2c(nc(OCC(F)(F)F)n(-c3ccc(OCC(F)(F)F)c(F)c3)c2=O)N1 [Example 309, 3-[3-Fluoro-4-(2,2,2-trifluoroethoxy)phenyl]-2-(2,2,2-trifluoroethoxy)-5,7-dihydro-3H-pyrrolo[2,3-d]pyrimidine-4,6-dione] | 98%
7 | O=C1Cc2c(nc(SCC3CC3)n(-c3ccc(OCC(F)(F)C(F)(F)F)cc3)c2=O)N1 [Example 323, 2-[(Cyclopropylmethyl)sulfanyl]-3-[4-(2,2,3,3,3-pentafluoropropoxy)phenyl]-5,7-dihydro-3H-pyrrolo[2,3-d]pyrimidine-4,6-dione] | 102%
8 | CC(C)Oc1nc2[nH]ccc2c(=O)n1-c1ccc(OCC(F)(F)F)cc1 [Example 221, 2-(1-Methylethoxy)-3-[4-(2,2,2-trifluoroethoxy)phenyl]-3,7-dihydro-4H-pyrrolo[2,3-d]pyrimidin-4-one] | 104%
9 | COCCOCCCSc1nc2cc[nH]c2c(=O)n1-c1ccc(OCC2CC2)cc1 [Example 141, 3-[4-(Cyclopropylmethoxy)phenyl]-2-{[3-(2-methoxyethoxy)propyl]sulfanyl}-3,5-dihydro-4H-pyrrolo[3,2-d]pyrimidin-4-one] | 100%
10 | CCSc1nc2cc[nH]c2c(=O)n1-c1ccc(OCC2CC2)c(Cl)c1 [Example 162, 3-[3-Chloro-4-(cyclopropylmethoxy)phenyl]-2-(ethylsulfanyl)-3,5-dihydro-4H-pyrrolo[3,2-d]pyrimidin-4-one] | 103%
11 | N#CCCNC(=O)CCCSc1nc2c(C3CC3)c[nH]c2c(=O)n1-c1ccc(OCC(F)(F)F)cc1 [Example 170, N-(2-cyanoethyl)-4-({7-cyclopropyl-4-oxo-3-[4-(2,2,2-trifluoroethoxy)phenyl]-4,5-dihydro-3H-pyrrolo[3,2-d]pyrimidin-2-yl}sulfanyl)butanamide] | 101%
12 | NS(=O)(=O)CCCSc1nc2cc[nH]c2c(=O)n1-c1ccc(OCC(F)(F)F)cc1 [Example 120, 3-({4-Oxo-3-[4-(2,2,2-trifluoroethoxy)phenyl]-4,5-dihydro-3h-pyrrolo[3,2-d]pyrimidin-2-yl}sulfanyl)propane-1-sulfonamide] | 101%
13 | O=c1c2cc[nH]c2nc(OC2CCC2)n1-c1ccc(OCC(F)(F)F)cc1 [Example 247, 2-(Cyclobutyloxy)-3-[4-(2,2,2-trifluoroethoxy)phenyl]-3,7-dihydro-4H-pyrrolo[2,3-d]pyrimidin-4-one] | 103%
14 | Cc1c[nH]c2c(=O)n(-c3ccc(OCC(F)(F)F)cc3)c(SCCCC(=O)NCCC#N)nc12 [Example 172, N-(2-cyanoethyl)-4-({7-methyl-4-oxo-3-[4-(2,2,2-trifluoroethoxy)phenyl]-4,5-dihydro-3H-pyrrolo[3,2-d]pyrimidin-2-yl}sulfanyl)butanamide] | 99%
15 | CC(C)COc1nc2c(c(=O)n1-c1ccc(OCC(F)(F)F)cc1)CC(=O)N2 [Example 318, 2-(2-Methylpropoxy)-3-[4-(2,2,2-trifluoroethoxy)phenyl]-5,7-dihydro-3H-pyrrolo[2,3-d]pyrimidine-4,6-dione] | 103%
16 | CC(C)OCCCSc1nc2cc[nH]c2c(=O)n1-c1ccc(OCC(F)(F)F)cc1 [Example 137, 2-{[3-(1-Methylethoxy)propyl]sulfanyl}-3-[4-(2,2,2-trifluoroethoxy)phenyl]-3,5-dihydro-4H-pyrrolo[3,2-d]pyrimidin-4-one] | 99%
17 | O=C(CCCSc1nc2cc[nH]c2c(=O)n1-c1ccc(OCC(F)(F)F)cc1)N1CCC(O)CC1 [Example 98, 2-{[4-(4-Hydroxypiperidin-1-yl)-4-oxobutyl]sulfanyl}-3-[4-(2,2,2-trifluoroethoxy)phenyl]-3,5-dihydro-4H-pyrrolo[3,2-d]pyrimidin-4-one] | 100%
18 | CCSc1nc2c(c(=O)n1-c1ccc(OCC(F)(F)F)cc1)CC(=O)N2 [Example 265, 2-(Ethylsulfanyl)-3-[4-(2,2,2-trifluoroethoxy)phenyl]-5,7-dihydro-3H-pyrrolo[2,3-d]pyrimidine-4,6-dione] | 98%
19 | CC(C)CCOc1ccc(-n2c(SCCCC(=O)NCCC#N)nc3cc[nH]c3c2=O)cc1 [Example 113, N-(2-cyanoethyl)-4-({3-[4-(3-methylbutoxy)phenyl]-4-oxo-4,5-dihydro-3H-pyrrolo[3,2-d]pyrimidin-2-yl}sulfanyl)butanamide] | 102%
20 | O=c1c2[nH]ccc2nc(SCCCS(=O)(=O)CC2CC2)n1-c1ccc(OCC2CC2)cc1 [Example 166, 3-[4-(Cyclopropylmethoxy)phenyl]-2-({3-[(cyclopropylmethyl)sulfonyl]propyl}sulfanyl)-3,5-dihydro-4H-pyrrolo[3,2-d]pyrimidin-4-one] | 101%
21 | O=c1c2cc[nH]c2nc(SCC(O)COC2CCOCC2)n1-c1ccc(OCC(F)(F)F)cc1 (centres unmarked) [Example 219, 2-{[2-Hydroxy-3-(tetrahydro-2H-pyran-4-yloxy)propyl]sulfanyl}-3-[4-(2,2,2-trifluoroethoxy)phenyl]-3,7-dihydro-4H-pyrrolo[2,3-d]pyrimidin-4-one] | 102%
22 | O=c1c2[nH]ccc2nc(SCCOC2CCOCC2)n1-c1ccc(OCC(F)(F)F)cc1 [Example 159, 2-{[2-(Tetrahydro-2H-pyran-4-yloxy)ethyl]sulfanyl}-3-[4-(2,2,2-trifluoroethoxy)phenyl]-3,5-dihydro-4H-pyrrolo[3,2-d]pyrimidin-4-one] | 99%
23 | CC(C)OCC(O)CSc1nc2cc[nH]c2c(=O)n1-c1ccc(OCC(F)(F)F)cc1 (centres unmarked) [Example 130, 2-{[2-Hydroxy-3-(1-methylethoxy)propyl]sulfanyl}-3-[4-(2,2,2-trifluoroethoxy)phenyl]-3,5-dihydro-4H-pyrrolo[3,2-d]pyrimidin-4-one] | 100%
24 | CSc1nc2cc[nH]c2c(=O)n1-c1ccc(OCC(F)(F)F)cc1 [Example 121, 2-(Methylsulfanyl)-3-[4-(2,2,2-trifluoroethoxy)phenyl]-3,5-dihydro-4H-pyrrolo[3,2-d]pyrimidin-4-one] | 100%
25 | O=c1c2[nH]ccc2nc(SCCO)n1-c1ccc(OCC2CC2)cc1 [Example 144, 3-[4-(Cyclopropylmethoxy)phenyl]-2-[(2-hydroxyethyl)sulfanyl]-3,5-dihydro-4H-pyrrolo[3,2-d]pyrimidin-4-one] | 101%
26 | O=c1c2[nH]ccc2nc(SCCO)n1-c1ccc(OCC(F)(F)F)cc1 [Example 127, 2-[(2-Hydroxyethyl)sulfanyl]-3-[4-(2,2,2-trifluoroethoxy)phenyl]-3,5-dihydro-4H-pyrrolo[3,2-d]pyrimidin-4-one] | 102%
27 | O=c1c2[nH]ccc2nc(SC(F)F)n1-c1ccc(OCC(F)(F)F)cc1 [Example 129, 2-[(Difluoromethyl)sulfanyl]-3-[4-(2,2,2-trifluoroethoxy)phenyl]-3,5-dihydro-4H-pyrrolo[3,2-d]pyrimidin-4-one] | 101%
28 | CC(C)(CO)NC(=O)CCCSc1nc2cc[nH]c2c(=O)n1-c1ccc(OCC(F)(F)F)cc1 [Example 100, N-(2-hydroxy-1,1-dimethylethyl)-4-({4-oxo-3-[4-(2,2,2-trifluoroethoxy)phenyl]-4,5-dihydro-3H-pyrrolo[3,2-d]pyrimidin-2-yl}sulfanyl)butanamide] | 100%
29 | CCCSc1nc2c(c(=O)n1-c1ccc(OCC(F)(F)F)cc1)CC(=O)N2 [Example 286, 2-(Propylsulfanyl)-3-[4-(2,2,2-trifluoroethoxy)phenyl]-5,7-dihydro-3H-pyrrolo[2,3-d]pyrimidine-4,6-dione] | 102%
30 | O=c1c2[nH]ccc2nc(SCCCO)n1-c1ccc(OCC(F)(F)F)cc1 [Example 116, 2-[(3-Hydroxypropyl)sulfanyl]-3-[4-(2,2,2-trifluoroethoxy)phenyl]-3,5-dihydro-4H-pyrrolo[3,2-d]pyrimidin-4-one] | 101%

same assay, conditions: test compound at 10 μM, room temperature, 120 minutes, 10 µM

Row | Compound | Inhibitory activity at 10 μM (%)
31 | CCCCOc1nc2[nH]ccc2c(=O)n1-c1ccc(OCC(F)(F)F)cc1 [Example 287, 2-Butoxy-3-[4-(2,2,2-trifluoroethoxy)phenyl]-3,7-dihydro-4H-pyrrolo[2,3-d]pyrimidin-4-one] | 98%
32 | O=c1c2cc[nH]c2nc(OCC2CC2)n1-c1ccc(OCC(F)(F)F)cc1 [Example 289, 2-(Cyclopropylmethoxy)-3-[4-(2,2,2-trifluoroethoxy)phenyl]-3,7-dihydro-4H-pyrrolo[2,3-d]pyrimidin-4-one] | 101%
